Legend:
[1] = test system: Circulating Hematologic Elements; experiment: Human HIV clinical protocol: hematology; type: in vivo
Experimental: Otherwise untreated patients with CD4 counts of ≧200/μL and HIV-1 viral RNA between 5,000 and 1,000,000 copies/mL (branched-DNA, version 3.0, Bayer, Tarrytown, N.Y.) provided informed consent and were enrolled into a Phase I/II dose-escalation study of the safety and efficacy of intramuscular injections of BrEA. The protocol was conducted in South Africa. In the first cohort, four patients received an initial injection of 1 mL (50 mg), followed by a safety and pharmocokinetic study for seven days, and then received five daily injections of 1 mL (50 mg). The second cohort of 8 patients was randomized in a 1:2 ratio to receive either 50 mg (1 mL) or 100 mg (2 mL) on the same schedule. Patients were allowed at the discretion of the investigators to receive up to three additional courses each, repeated after 28 days of observation. The protocol was amended to introduce an improved formulation, and to extend the initial pharmacokinetic and safety period to 14 days, the observation period following the five daily doses to 35 days, and to allow up to 7 treatment courses. A third cohort of 24 patients was randomized in a 1:2:4 ratio to receive either 50 mg (0.5 mL), 100 mg (1 mL), or 200 mg (2 mL) of BrEA. The patients were all male, since initial safety studies are not permitted in females in South Africa. Within the group of 39 patients randomized, the ethnic demographic included was 18 Caucasian, 17 African, and 4 other. The average age was 34 (range 20-63), the average initial CD4/μL was 434 (range 176-1210), and the average viral load was 13,772 copies/mL (range 3,020-158,489). Patients underwent physical examinations and provided samples for chemistry, hematology, virology and immunology testing approximately every two weeks.
The CD4^+ cell frequency was determined using the FACSCount test. The absolute frequency of a CD8^+ cell subset was calculated in a similar fashion. The absolute white blood cell (WBC) count was determined using an automated cell counter (Advia 120, Bayer, Tarrytown, N.Y.). The nucleated cell region was defined using a forward versus orthogonal scatter plot. The absolute frequency per μL of CD3^− Natural Killer or Dendritic Cell subsets (F) was estimated by the equation: F=(proportion of nucleated cells)×(absolute WBC count per μL).
Statistical analysis of changes in surface phenotypes, hematological, and viral parameters were performed by calculating the area under the curve (AUC) of the percentage difference from baselines (phenotype), percentage difference from the mean of screen and baseline values (hematology), or log10 change from the mean of screen and baseline values (plasma viral RNA) for individual patients. AUC were calculated using the actual number of days between analysis visits for each patient. Because patients were on study for varying periods of time, this value was normalized to the time-averaged AUC by dividing by the number of days of observation. The Student's t-test was then used to analyze the difference from zero for the AUCs from all patients with data available for each parameter. A significant increase in the AUC for the entire 5-month period was interpreted as a nonrandom change in the given parameter.
For these reasons, the time-averaged AUC values for the 5-month period underestimate the magnitude of the individual responses. Maximal individual patient responses were calculated as the mean of the maximal percentage changes from baselines for individual patients at any analysis visit after dosing.
To investigate the kinetics of the responses for the entire population related to the time after dosing, the maximum analysis visit responses were calculated as the average of the maxima of the mean percentage changes from baselines for each analysis visit. Due to the altered BrEA administration interval for cohort 3, the analysis visits were aligned relative to the last dosing visit.

Wistar rats = experiment: DNBS induced distal colitis in rats; type: in vivo
Experimental: Groups of 3 male Wistar rats (180±20 grams) fasted for 24 hours before 2,4-dinitrobenzene sulfonic acid (DNBS) or saline challenge were used. Distal colitis was induced by intra-colonic instillation of 0.5 mL of an ethanolic solution of DNBS (30 mg in 0.5 mL of a 30% ethanol in saline solution) after which 2 mL of air was injected through the cannula to ensure that the solution remained in the colon. The volume used was 0.1 mL per injection of 2 and 20 mg/mL of 7-oxodehydroepiandrosterone in a liquid formulation, was administered by subcutaneous injection once a day for 6 days. The formulation contained […] of 7-oxodehydroepiandrosterone in a non-aqueous suspension that contained 2% benzyl alcohol w/v, 0.1% Brij 96 w/v and equal volumes of PEG 300 and propylene glycol. Concentrations of 2 mg/mL and 20 mg/mL were obtained by diluting the […] with vehicle that lacked the active substance.
The first dose was given 30 minutes after DNBS challenge. Sulfasalazine (30 mg/mL in 2% Tween 80 in distilled water) was administered orally (PO) once a day (10 mL/kg/day) for 7 days, the first two doses beginning 24 hours and 2 hours before DNBS challenge. The presence of diarrhea was recorded daily by examining the anal area. Animals were fasted for 24 hours prior to being sacrificed. Animals were sacrificed on day 7 or day 8 and their colons were removed and weighed. Before removal of the colon, signs of adhesion between the colon and other organs were recorded. Also, the presence of ulcerations was noted after weighing of each colon. The “net” change of colon-to-body weight (BW) ratio was normalized relative to saline-challenged baseline group. A 30% decrease in “net” colon-to-body weight ratio was considered significant.
A total of five studies were conducted. Data from the first study are reported in this report. The 7-oxodehydroepiandrosterone at 2 and 20 mg/mL, decreased the net colon-to-body weight ratio by 19 and by 14% relative to vehicle-treated group, respectively. […] The formula 1 compound 3β,7β,17β-trihydroxyandrost-5-ene (AET) was administered by subcutaneous injections of 2 and 20 mg/day for 5 or 6 days, with the first dose injected 30 minutes post-DNBS challenge. The AET formulation was the same as the 7-oxodehydroepiandrosterone formulation, except that AET replaced 7-oxodehydroepiandrosterone. AET decreased the net colon-to-body weight ratio by 15% and 21% relative to controls (see the table below). Animals treated with AET (20 mg/kg) had no diarrhea. […] The same formulations containing BrEA hemihydrate (100 mg/mL) or dehydroepiandrosterone (20 mg/mL) decreased the net colon-to-body weight ratio by 21 and 3%, respectively relative to controls.

C[C@]12CC[C@H](O)C[C@@H]1CC[C@@H]1[C@@H]2CC[C@]2(C)C(=O)[C@H](Br)C[C@@H]12 [BrEA, 16α-bromo-3β-hydroxy-5α-androstane-17-one]
Eosinophils: Maximum Analysis Visit Responses Mean ([1]; analysis visit day 22): 129% (22)
WBC: Maximum Analysis Visit Responses Mean ([1]; analysis visit day 81): 23% (81)
Basophils: Maximum Analysis Visit Responses Mean ([1]; analysis visit day 126): 113% (126)
Eosinophils: Maximum Individual Patient Responses Mean (range) ([1]; change from baseline, n=33): 110% (−37 to 656%)
Basophils: Maximum Individual Patient Responses Mean (range) ([1]; change from baseline, n=37): 182% (−20 to 1,100%)
Monocytes: Maximum Individual Patient Responses Mean (range) ([1]; change from baseline, n=37): 60% (−14 to 189%)
Neutrophils: Maximum Individual Patient Responses Mean (range) ([1]; change from baseline, n=37): 67% (−25 to 297%)
Platelets: Maximum Individual Patient Responses Mean (range) ([1]; change from baseline, n=37): 31% (0 to 122%)
WBC: Maximum Individual Patient Responses Mean (range) ([1]; change from baseline, n=37): 36% (−1 to 159%)
WBC: Time-averaged AUC Increase Mean ± SEM ([1]; i.m. BrEA, HIV patients, n=37, p=0.132): 4.4 ± 3%
Eosinophils: Time-averaged AUC Increase Mean ± SEM ([1]; n=33, p=0.086): 20 ± 11%
Platelets: Time-averaged AUC Increase Mean ± SEM ([1]; n=37, p<0.001): 7 ± 2%
Basophils: Time-averaged AUC Increase Mean ± SEM ([1]; n=37, p=0.001): 42 ± 12%
Neutrophils: Time-averaged AUC Increase Mean ± SEM ([1]; n=37, p=0.009): 11 ± 4%
Monocytes: Time-averaged AUC Increase Mean ± SEM ([1]; n=37, p=0.029): 10 ± 5%

C[C@]12CC[C@H](O)CC1=CC[C@@H]1[C@@H]2CC[C@]2(C)C(=O)CC[C@@H]12 [DHEA, dehydroepiandrosterone, reference compound]
animals with severe acute inflammation (Wistar rats; 7 days after DNBS challenge, 3 of 10 in immunosteroid vehicle controls): 10 animals
animals with moderate acute inflammation (Wistar rats; 7 days after DNBS challenge, 5 of 10 in immunosteroid vehicle controls): 0 animals
animals with severe chronic inflammation (Wistar rats; 14 days after DNBS challenge, 8 of 10 in immunosteroid vehicle controls): 3 animals
decrease of net colon-to-body weight ratio relative to vehicle/controls (Wistar rats; DNBS rats, 20 mg/mL formulation s.c.): 3%
animals with severe ulceration (Wistar rats; day 7 (acute inflammation) after DNBS challenge, vehicle control 8 of 10): 10 of 10
animals with severe ulceration (Wistar rats; day 14 (chronic inflammation) after DNBS challenge, vehicle controls 5 of 10): 0 of 10

Reference: patent publication US20070275936A1, “Formulations and Treatment Methods” (priority 1998, published 2007)
